The target in one test is T1, CDK9/CycT1 (Homo sapiens, UniProt P50750).
T1 construct: Recombinant full-length His-tagged human CDK9 and CycT1; His; purchased Invitrogen PV4131; host or cells: insect cells
Kind of test: CDK9/CycT1 kinase assay (TR-FRET, Method 1a). It is filed as biochemical. Conditions: for IC50: Method 1a, 10 μM ATP; for Selectivity CDK9 over CDK2: IC50 (CDK2)/IC50 (CDK9): Methods 1a and 2a, minimal values where CDK9 IC50 is at the assay limit. The text has this: 1a. CDK9/CycT1 Kinase Assay:
CDK9/CycT1-inhibitory activity of compounds of the present invention was quantified employing the CDK9/CycT1 TR-FRET assay as described in the following paragraphs:
Recombinant full-length His-tagged human CDK9 and CycT1, expressed in insect cells and purified by Ni-NTA affinity chromatography, were purchased from Invitrogen (Cat. No PV4131). As substrate for the kinase reaction biotinylated peptide biotin-Ttds-YISPLKSPYKISEG (C-terminus in amid form) was used which can be purchased e.g. from the company JERINI Peptide Technologies (Berlin, Germany). For the assay 50 nl of a 100 fold concentrated solution of the test compound in DMSO was pipetted into a black low volume 384 well microtiter plate (Greiner Bio-One, Frickenhausen, Germany), 2 μl of a solution of CDK9/CycT1 in aqueous assay buffer [50 mM Tris/HCl pH 8.0, 10 mM MgCl2, 1.0 mM dithiothreitol, 0.1 mM sodium ortho-vanadate, 0.01% (v/v) Nonidet-P40 (Sigma)] were added and the mixture was incubated for 15 min at 22° C. to allow pre-binding of the test compounds to the enzyme before the start of the kinase reaction. […] The concentration of CDK9/CycT1 was adjusted depending of the activity of the enzyme lot and was chosen appropriate to have the assay in the linear range, typical concentrations were in the range of 1 μg/mL. The reaction was stopped by the addition of 5 μl of a solution of TR-FRET detection reagents (0.2 μM streptavidine-XL665 [Cisbio Bioassays, Codolet, France] and 1 nM anti-RB(pSer807/pSer811)-antibody from BD Pharmingen [#558389] and 1.2 nM LANCE EU-W1024 labeled anti-mouse IgG antibody [Perkin-Elmer, product no. AD0077]) in an aqueous EDTA-solution (100 mM EDTA, 0.2% (w/v) bovine serum albumin in 100 mM HEPES pH 7.5).
The resulting mixture was incubated 1 h at 22° C. to allow the formation of complex between the phosphorylated biotinylated peptide and the detection reagents. Subsequently the amount of phosphorylated substrate was evaluated by measurement of the resonance energy transfer from the Eu-chelate to the streptavidine-XL. Therefore, the fluorescence emissions at 620 nm and 665 nm after excitation at 350 nm was measured in a HTRF reader, e.g. a Rubystar (BMG Labtechnologies, Offenburg, Germany) or a Viewlux (Perkin-Elmer). The ratio of the emissions at 665 nm and at […] was taken as the measure for the amount of phosphorylated substrate. The data were normalised (enzyme reaction without inhibitor=0% inhibition, all other assay components but no enzyme=100% inhibition).

In another test the test system is DU145 cells. The test can be described thus: Proliferation assay DU145. It is filed as cell-based, human. Conditions: 4 days, crystal violet, read-out: Inhibition of DU145 cell proliferation IC50. The protocol:
Cultivated tumour cells (HeLa, human cervical tumour cells, ATCC CCL-2; NCI-H460, human non-small cell lung carcinoma cells, ATCC HTB-177; A2780, human ovarian carcinoma cells, ECACC #93112519; DU 145, hormone-independent human prostate carcinoma cells, ATCC HTB-81; HeLa-MaTu-ADR, multidrug-resistant human cervical carcinoma cells, EPO-GmbH Berlin; Caco-2, human colorectal carcinoma cells, ATCC HTB-37; B16F10, mouse melanoma cells, ATCC CRL-6475) were plated at a density of 5,000 cells/well (DU145, HeLa-MaTu-ADR), 3,000 cells/well (NCI-H460, HeLa), 2,500 cells/well (A2780), 1,500 cells/well (Caco-2), or 1,000 cells/well (B16F10) in a 96-well multititer plate in 200 μL of their respective growth medium supplemented 10% fetal calf serum. After 24 hours, the cells of one plate (zero-point plate) were stained with crystal violet (see below), while the medium of the other plates was replaced by fresh culture medium (200 μl), to which the test substances were added in various concentrations (0 μM, as well as in the range of 0.001-10 μM). The cells were incubated for 4 days in the presence of test substances. Cell proliferation was determined by staining the cells with crystal violet: the cells were fixed by adding 20 μl/measuring point of an 11% glutaric aldehyde solution for 15 minutes at room temperature. After three washing cycles of the fixed cells with water, the plates were dried at room temperature. The cells were stained by adding 100 μl/measuring point of a 0.1% crystal violet solution (pH 3.0). After three washing cycles of the stained cells with water, the plates were dried at room temperature. The dye was dissolved by adding 100 μl/measuring point of a 10% acetic acid solution. The extinction was determined by photometry at a wavelength of 595 nm. The change of cell number, in percent, was calculated by normalization of the measured values to the extinction values of the zero-point plate (=0%) and the extinction of the untreated (0 μm) cells (=100%). The IC50 values (inhibitory concentration at 50% of maximal effect) were determined by means of a 4 parameter fit. Non-adherent MOLM-13 human acute myeloid leukemia cells (DSMZ ACC 554) were seeded at a density of 5,000 cells/well in a 96-well multititer plate in 100 μL of growth medium supplemented 10% fetal calf serum. After 24 hours, cell viability of one plate (zero-point plate) was determined with the Cell Titre-Glo Luminescent Cell Viability Assay (Promega), while 50 μL of test compound containing medium was added to the wells of the other plates (final concentrations in the range of 0.001-1 μM and DMSO controls). Cell viability was assessed after 72-hour exposure with the Cell Titre-Glo Luminescent Cell Viability Assay (Promega). IC50 values (inhibitory concentration at 50% of maximal effect) were determined by means of a 4 parameter fit on measurement data which were normalized to vehicle (DMSO) treated cells (=100%) and measurement readings taken immediately before compound exposure (=0%).

The structures appear in SMILES notation. Like-named read-outs stand apart in the source and are kept apart here.

T1 sequence (P50750 whole entry): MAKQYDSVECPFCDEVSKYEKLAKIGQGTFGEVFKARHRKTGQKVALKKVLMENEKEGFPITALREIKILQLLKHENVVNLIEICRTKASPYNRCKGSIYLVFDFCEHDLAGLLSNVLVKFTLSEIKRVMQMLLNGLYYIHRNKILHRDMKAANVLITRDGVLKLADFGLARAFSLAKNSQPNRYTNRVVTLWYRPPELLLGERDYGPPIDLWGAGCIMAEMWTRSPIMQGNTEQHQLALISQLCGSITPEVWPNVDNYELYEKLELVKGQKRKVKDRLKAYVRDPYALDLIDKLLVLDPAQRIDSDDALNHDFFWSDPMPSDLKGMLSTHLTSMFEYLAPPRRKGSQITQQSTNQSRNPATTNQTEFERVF
T1 sequence (O60563 whole entry partner): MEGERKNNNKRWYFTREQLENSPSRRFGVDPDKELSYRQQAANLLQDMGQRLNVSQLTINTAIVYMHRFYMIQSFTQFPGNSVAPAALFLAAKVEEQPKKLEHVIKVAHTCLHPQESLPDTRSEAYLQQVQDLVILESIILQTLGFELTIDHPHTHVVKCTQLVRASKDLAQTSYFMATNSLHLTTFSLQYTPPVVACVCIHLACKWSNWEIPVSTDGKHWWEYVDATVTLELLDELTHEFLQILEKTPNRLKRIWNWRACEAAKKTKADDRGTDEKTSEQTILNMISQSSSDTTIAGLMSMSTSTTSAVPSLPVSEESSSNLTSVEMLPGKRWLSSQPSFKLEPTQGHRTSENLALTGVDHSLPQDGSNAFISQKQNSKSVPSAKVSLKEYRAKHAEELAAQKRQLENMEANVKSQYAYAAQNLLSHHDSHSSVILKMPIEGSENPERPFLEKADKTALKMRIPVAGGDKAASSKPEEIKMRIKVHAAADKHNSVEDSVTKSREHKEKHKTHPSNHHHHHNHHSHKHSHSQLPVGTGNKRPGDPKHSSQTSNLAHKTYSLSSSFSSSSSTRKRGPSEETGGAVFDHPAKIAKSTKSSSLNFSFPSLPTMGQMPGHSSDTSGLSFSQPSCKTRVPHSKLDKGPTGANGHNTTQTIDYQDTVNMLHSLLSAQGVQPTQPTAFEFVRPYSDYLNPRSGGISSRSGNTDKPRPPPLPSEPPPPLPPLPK

In the case of `CCOC(=O)N=S(C)(=O)Cc1cc2nc(c1)OCCCOc1cc(F)ccc1-c1cc(ncc1F)N2` (racemic) [Example 20, (rac)-ethyl [{[15,19-difluoro-3,4-dihydro-2H,11H-10,6-(azeno)-12,16-(metheno)-1,5,11,13-benzodioxadiazacyclooctadecin-8-yl]methyl}(methyl)oxido-λ^6-sulfanylidene]carbamate], on CDK9/CycT1, the IC50 was 5.3 nM and the “Selectivity CDK9 over CDK2: IC50 (CDK2)/IC50 (CDK9)” value (“Selectivity CDK9 over CDK2: IC50” for short) turned out to be 2.2. Besides, the IC50 in the test on DU145 cells (Homo sapiens, DU-145, 96 h) amounted to 55 nM.

In the case of `CS(=O)(Cc1cc2nc(c1)OCCCOc1cc(F)ccc1-c1cc(ncc1F)N2)=NC(=O)OCCCl` (racemic) [Example 21, (rac)-2-chloroethyl [{[15,19-difluoro-3,4-dihydro-2H,11H-10,6-(azeno)-12,16-(metheno)-1,5,11,13-benzodioxadiazacyclooctadecin-8-yl]methyl}(methyl)oxido-λ^6-sulfanylidene]carbamate], the IC50 at CDK9/CycT1 came to 7.3 nM; in the test on DU145 cells (Homo sapiens, DU-145, 96 h), 31 nM. At CDK9/CycT1, the “Selectivity CDK9 over CDK2: IC50” value is recorded as 1.6.

Turning to `CS(=O)(=O)N=S(C)(=O)Cc1cc2nc(c1)OCCCOc1cc(F)ccc1-c1cc(ncc1F)N2` (racemic) [Example 22, (rac)-N-[{[15,19-difluoro-3,4-dihydro-2H,11H-10,6-(azeno)-12,16-(metheno)-1,5,11,13-benzodioxadiazacyclooctadecin-8-yl]methyl}(methyl)oxido-λ^6-sulfanylidene]methanesulfonamide], the IC50 against CDK9/CycT1 turned out to be 5.3 nM; in the test on DU145 cells (Homo sapiens, DU-145, 96 h) it was 40 nM. Moreover, the “Selectivity CDK9 over CDK2: IC50” value at CDK9/CycT1 is listed as 3.7.

Turning to `CS(=O)(Cc1cc2nc(c1)OCCCOc1cc(F)ccc1-c1cc(ncc1F)N2)=NS(=O)(=O)CCN` (racemic) [Example 23, (rac)-2-amino-N-[{[15,19-difluoro-3,4-dihydro-2H,11H-10,6-(azeno)-12,16-(metheno)-1,5,11,13-benzodioxadiazacyclooctadecin-8-yl]methyl}(methyl)oxido-λ^6-sulfanylidene]ethanesulfonamide], on CDK9/CycT1, the IC50 was determined as 8.7 nM and the “Selectivity CDK9 over CDK2: IC50” value is given as 3.5. Also, in the test with DU145 cells, the IC50 worked out at 833 nM.

For `CS(=O)(Cc1cc2nc(c1)OCCCOc1cc(F)ccc1-c1cc(ncc1F)N2)=NS(=O)(=O)CCN.O=C(O)C(F)(F)F` (racemic) [Example 24, (rac)-2-{[{[15,19-difluoro-3,4-dihydro-2H,11H-10,6-(azeno)-12,16-(metheno)-1,5,11,13-benzodioxadiazacyclooctadecin-8-yl]methyl}(methyl)oxido-λ^6-sulfanylidene]sulfamoyl}ethanaminium trifluoroacetate], on CDK9/CycT1, the IC50 is 2.2 nM and the “Selectivity CDK9 over CDK2: IC50” value was 6.2. In addition, the IC50 in the test on DU145 cells (trifluoroacetate) stood at 387 nM.

Consider `CS(=O)(Cc1cc2nc(c1)OCCCOc1cc(F)ccc1-c1cc(ncc1F)N2)=NC(=O)OCCN` (racemic) [Example 25, (rac)-2-aminoethyl [{[15,19-difluoro-3,4-dihydro-2H,11H-10,6-(azeno)-12,16-(metheno)-1,5,11,13-benzodioxadiazacyclooctadecin-8-yl]methyl}(methyl)oxido-λ^6-sulfanylidene]carbamate], for which the IC50 worked out at 4.3 nM against CDK9/CycT1 and 123 nM in the test with DU145 cells (Homo sapiens, DU-145, 96 h). On CDK9/CycT1, the “Selectivity CDK9 over CDK2: IC50” value is on record as 1.3.

For `CS(=N)(=O)Cc1cc2nc(c1)OCCCOc1cc(F)ccc1-c1cc(ncc1F)N2` (single isomer, unassigned; enantiomer 1) [Example 6, 15,19-Difluoro-8-[(S-methylsulfonimidoyl)methyl]-3,4-dihydro-2H,11H-10,6-(azeno)-12,16-(metheno)-1,5,11,13-benzodioxadiazacyclooctadecine; Enantiomer 1], on CDK9/CycT1, the IC50 stood at 3 nM and the “Selectivity CDK9 over CDK2: IC50” value is reported as 0.9. The IC50 in the test on DU145 cells (Homo sapiens, DU-145, 96 h) is 4 nM.

As for `CS(=N)(=O)Cc1cc2nc(c1)OCCCOc1cc(F)ccc1-c1cc(ncc1F)N2` (single isomer, unassigned; enantiomer 2) [Example 7, 15,19-Difluoro-8-[(S-methylsulfonimidoyl)methyl]-3,4-dihydro-2H,11H-10,6-(azeno)-12,16-(metheno)-1,5,11,13-benzodioxadiazacyclooctadecine; Enantiomer 2], on CDK9/CycT1, the IC50 amounted to 7.3 nM and the “Selectivity CDK9 over CDK2: IC50” value amounted to 0.3. The IC50 in the test with DU145 cells came out at 5 nM.

Consider `CSCc1cc2cc(c1)OCCCOc1cc(F)ccc1-c1nc(ncc1F)N2` [Example 2, 15,19-Difluoro-8-[(methylsulfanyl)methyl]-3,4-dihydro-2H,11H-12,16-(azeno)-10,6-(metheno)-1,5,11,13-benzodioxadiazacyclooctadecine], for which the IC50 was 7.3 nM against CDK9/CycT1 and 111 nM with DU145 cells (Homo sapiens, DU-145, 96 h). For the same compound, the “Selectivity CDK9 over CDK2: IC50” value at CDK9/CycT1 was found to be 13.5.

Turning to `CSCc1cc2nc(c1)OCCCOc1cc(F)ccc1-c1cc(ncc1F)N2` [Example 3, 15,19-Difluoro-8-[(methylsulfanyl)methyl]-3,4-dihydro-2H,11H-10,6-(azeno)-12,16-(metheno)-1,5,11,13-benzodioxadiazacyclooctadecine], at CDK9/CycT1, the IC50 came to 6.8 nM and the “Selectivity CDK9 over CDK2: IC50” value was found to be 6.0. Further, the IC50 with DU145 cells (Homo sapiens, DU-145, 96 h) worked out at 88 nM.

As for `CS(=O)(=O)Cc1cc2nc(c1)OCCCOc1cc(F)ccc1-c1cc(ncc1F)N2` [Example 8, 15,19-difluoro-8-[(methylsulfonyl)methyl]-3,4-dihydro-2H,11H-10,6-(azeno)-12,16-(metheno)-1,5,11,13-benzodioxadiazacyclooctadecine], at CDK9/CycT1, the IC50 was found to be 3.8 nM and the “Selectivity CDK9 over CDK2: IC50” value is listed as 1.3. The IC50 in the test with DU145 cells (Homo sapiens, DU-145, 96 h) was 17 nM.

For `CSCc1cc2nc(c1)OCCCCOc1cc(F)ccc1-c1cc(ncc1F)N2` [Example 12, 16,20-Difluoro-9-[(methylsulfanyl)methyl]-2,3,4,5-tetrahydro-12H-11,7-(azeno)-13,17-(metheno)-1,6,12,14-benzodioxadiazacyclononadecine], at CDK9/CycT1, the IC50 was 16.5 nM and the “Selectivity CDK9 over CDK2: IC50” value was found to be 6.9. Also, the IC50 with DU145 cells (Homo sapiens, DU-145, 96 h) turned out to be 218 nM.
